Test results published in patent publication US12514859B2, “Pyrazole pyrimidine derivative and uses thereof” (Yissum Research Development Company of the Hebrew …, priority 2015, dated 2026).

Columns and labels:
[1] = tested on: p53, DNA damage response (γH2AX); assay: p53 and DNA damage response activation in RKO cells (Western blot, primary screen and dose response); assay type: cell-based; set-up: p53 stabilization: dose or concentration left out as unconfirmed; conditions: for DDR & p53 activity: 16 hours, Western blot, average value
Protocol: (§1) Primary Screen in RKO cells for compounds having typical CKIα inhibitory activity (β-catenin and p53 stabilization and histone H2AX phosphorylation; see Elyada et al, Nature 2011 Feb. 17; 470(7334):409-13; Pribluda et al, Cancer Cell 2013 Aug. 12; 24(2):242-56). RKO colorectal cells were incubated with 10 μM of each of the compounds for 16 hours at 37° C. Cells were washed with PBS and cell pellets were incubated with ice cold protein lysis buffer containing protease inhibitor cocktail (1/200; Calbiochem) and phosphatase inhibitors (20 mM p-nitrophenyl phosphate (PNPP), 20 mM β-glycerophosphate and 300 nM okadaic acid). Western blot analysis was performed by means of standard techniques. Blots were incubated with antibodies detecting β-catenin (1/2,500; BD Transduction), p53 (DO-1&1801 hybridoma mix; dilution of 1:20 of supernatants from each), CKIα (C-19; 1/1,000; Santa Cruz Biotechnology) and phospho-histoneH2AX (S139; 1/1,000; Millipore). Secondary antibodies were HRP-linked goat anti-mouse, goat anti-rabbit and rabbit anti-goat antibodies (all 1/10,000; Jackson). Blots were developed using ECL (GE Healthcare).
(§2) Active compounds were further analyzed in a dose-response experiment (FIGS. 1A and 1B). Similar to the primary screen, RKO cells were incubated with descending concentrations of each of the active compounds for 16 hours at 37° C. Cell extract isolation and Western Blot analysis were similar to the primary screen.
(§3) Table 1 provides quantified information for compounds of the invention in activation of p53 and DNA damage response (DDR) and β-catenin stabilization as an indicator of Wnt pathway activation. p53 activation was determined according to the degree of protein stabilization in several Western blot assays (Western blot examples are shown in FIGS. 1A and 1B). […] In contrast, A35 started stabilizing p53 at […], with maximal stabilization at […] (FIG. 1A, upper right panel) and thus received an average value of +++ for p53 activation.

Wnt/β-catenin = assay: β-catenin stabilization (Wnt pathway activation) in RKO cells (Western blot); assay type: cell-based; set-up: concentration at which β-catenin was stabilized: unit not given here; conditions: for β-Catenin activity: 16 hours, Western blot
Protocol: as §1, §2, §3

Compound | DDR & p53 activity [1] | β-Catenin activity (Wnt/β-catenin) | also measured
Cn1ncc(-c2ccnc(NC3CCC(N)(CO)CC3)n2)c1CC1CC1 (stereo not drawn) [Compound A19, (1-amino-4-((4-(5-(cyclopropylmethyl)-1-methyl-1H-pyrazol-4-yl)pyrimidin-2-yl)amino)cyclohexyl)methanol] | + (+ indicates low, yet significant activation at a compound concentration of 6 μM) | + (+ indicates low, yet significant activation at a compound concentration of 6 μM) | 
Cn1ncc(-c2ccnc(NC3CCC4(CC3)NC(=O)NC4=O)n2)c1CC1CC1 (stereo not drawn) [Compound A19-4, 8-((4-(5-(cyclopropylmethyl)-1-methyl-1H-pyrazol-4-yl)pyrimidin-2-yl)amino)-1,3-diazaspiro[4.5]decane-2,4-dione] |  | +++ (+++ indicates maximal β-catenin or p53 stabilization at >2 μM) | p53 stabilization and γH2AX induction (in words) ([1]; FIG. 1A): neither stabilized p53, nor induced γH2AX; concentration at which β-catenin was stabilized (Wnt/β-catenin; FIG. 1A): 2
Cn1ncc(-c2ccnc(NC3CCC4(CC3)COC(=O)N4)n2)c1CC1CC1 (stereo not drawn) [Compound A26, 8-((4-(5-(cyclopropylmethyl)-1-methyl-1H-pyrazol-4-yl)pyrimidin-2-yl)amino)-3-oxa-1-azaspiro[4.5]decan-2-one] | + (+ indicates low, yet significant activation at a compound concentration of 6 μM) | + (+ indicates low, yet significant activation at a compound concentration of 6 μM) | 
Cn1ncc(-c2ccnc(N[C@H]3CC[C@H](N(C)C)CC3)n2)c1CC1CC1 [Compound A28, (1r, 4r)-N^1-(4-(5-(cyclopropylmethyl)-1-methyl-1H-pyrazol-4-yl)pyrimidin-2-yl)-N4,N4-dimethylcyclohexane-1,4-diamine] |  | +++ (+++ indicates maximal β-catenin or p53 stabilization at >2 μM) | 
Cn1ncc(-c2nc(NC3CCC(C)(N)CC3)ncc2Cl)c1CC1CC1 [Compound A30-1, (1R,4R)—N^1-(5-chloro-4-(5-(cyclopropylmethyl)-1-methyl-1H-pyrazol-4-yl)pyrimidin-2-yl)-4-methylcyclohexane-1,4-diamine] | ++++ (++++ indicates maximal activation of p53 and DDR at >0.5 μM) |  | 
CC(C)n1ncc(-c2ccnc(N[C@H]3CC[C@H](N)CC3)n2)c1CC1CC1 [Compound A35, (1r, 4r)-N^1-(4-(5-(cyclopropylmethyl)-1-isopropyl-1H-pyrazol-4-yl)pyrimidin-2-yl)cyclohexane-1,4-diamine] | +++ (+++ indicates maximal β-catenin or p53 stabilization at >2 μM) |  | concentration at which p53 stabilization starts / is significantly above non-treatment control ([1]; FIG. 1A): 0.2 µM; concentration of maximal p53 stabilization ([1]; FIG. 1A): 1 µM
N[C@H]1CC[C@H](Nc2nccc(-c3cnn(C4CCCOC4)c3CC3CC3)n2)CC1 (stereo partly drawn) [Compound A38, (1R, 4R)—N^1-(4-(5-(cyclopropylmethyl)-1-(tetrahydro-2H-pyran-3-yl)-1H-pyrazol-4-yl)pyrimidin-2-yl)cyclohexane-1,4-diamine] | + (+ indicates low, yet significant activation at a compound concentration of 6 μM) | + (+ indicates low, yet significant activation at a compound concentration of 6 μM) | 
N[C@H]1CC[C@H](Nc2nccc(-c3cnn(C4COC4)c3CC3CC3)n2)CC1 [Compound A43, (1R, 4R)—N^1-(4-(5-(cyclopropylmethyl)-1-(oxetan-3-yl)-1H-pyrazol-4-yl)pyrimidin-2-yl)cyclohexane-1,4-diamine] | + (+ indicates low, yet significant activation at a compound concentration of 6 μM) |  | concentration at which p53 stabilization starts / is significantly above non-treatment control ([1]; FIG. 1A): 6 µM; p53 stabilization ([1]; FIG. 1A): no activity
Cn1ncc(-c2ccnc(N[C@H]3CC[C@H](N)CC3)n2)c1CC1CCC1 [Compound A45, (1R, 4R)—N^1-(4-(5-(cyclobutylmethyl)-1-methyl-1H-pyrazol-4-yl)pyrimidin-2-yl)cyclohexane-1,4-diamine] |  | + (+ indicates low, yet significant activation at a compound concentration of 6 μM) | 
Cn1ncc(-c2ccnc(N[C@H]3CC[C@H](N4CCCCC4)CC3)n2)c1CC1CC1 [Compound A47, 4-(5-(cyclopropylmethyl)-1-methyl-1H-pyrazol-4-yl)-N-((1R,4R)-4-(piperidin-1-yl)cyclohexyl)pyrimidin-2-amine] |  | + (+ indicates low, yet significant activation at a compound concentration of 6 μM) | 
Cn1ncc(-c2ccnc(N[C@H]3CC[C@H](N4CCCC4)CC3)n2)c1CC1CC1 [Compound A49, 4-(5-(cyclopropylmethyl)-1-methyl-1H-pyrazol-4-yl)-N-((1R, 4R)-4-(pyrrolidin-1-yl)cyclohexyl)pyrimidin-2-amine] | + (+ indicates low, yet significant activation at a compound concentration of 6 μM) |  | 
Cn1ncc(-c2ccnc(N[C@H]3CC[C@H](N4CCC4)CC3)n2)c1CC1CC1 [Compound A50, N-((1R, 4R)-4-(azetidin-1-yl)cyclohexyl)-4-(5-(cyclopropylmethyl)-1-methyl-1H-pyrazol-4-yl)pyrimidin-2-amine] | +++ (+++ indicates maximal β-catenin or p53 stabilization at >2 μM) |  | 
Cn1ncc(-c2ccnc(N[C@H]3CC[C@H](N)CC3)n2)c1C(O)C1CC1 (stereo partly drawn) [Compound A58, (4-(2-(((1R,4R)-4-aminocyclohexyl)amino)pyrimidin-4-yl)-1-methyl-1H-pyrazol-5-yl)(cyclopropyl)methanol] | + (+ indicates low, yet significant activation at a compound concentration of 6 μM) |  | 
CC(C)n1ncc(-c2nc(N[C@H]3CC[C@H](N)CC3)ncc2Cl)c1CC1CC1 [Compound A59, (1R,4R)—N^1-(5-chloro-4-(5-(cyclopropylmethyl)-1-isopropyl-1H-pyrazol-4-yl)pyrimidin-2-yl)cyclohexane-1,4-diamine] | +++ (+++ indicates maximal β-catenin or p53 stabilization at >2 μM) |  | 
Cn1ncc(-c2nc(N[C@H]3CC[C@H](n4cccn4)CC3)ncc2Cl)c1CC1CC1 [Compound A64, N-((1R,4R)-4-(1H-pyrazol-1-yl)cyclohexyl)-5-chloro-4-(5-(cyclopropylmethyl)-1-methyl-1H-pyrazol-4-yl)pyrimidin-2-amine] | + (+ indicates low, yet significant activation at a compound concentration of 6 μM) |  | 
Cn1ncc(-c2nc(NC3CCC(NCc4ccccc4)CC3)ncc2Cl)c1CC1CC1 [Compound A74, (1R,4R)—N^1-benzyl-N^4-(5-chloro-4-(5-(cyclopropylmethyl)-1-methyl-1H-pyrazol-4-yl)pyrimidin-2-yl)cyclohexane-1,4-diamine] | +++ (+++ indicates maximal β-catenin or p53 stabilization at >2 μM) |  | 
Cn1ncc(-c2nc(NC3CCC(NCc4cccnc4)CC3)ncc2Cl)c1CC1CC1 [Compound A76, (1R,4R)—N^1-(5-chloro-4-(5-(cyclopropylmethyl)-1-methyl-1H-pyrazol-4-yl)pyrimidin-2-yl)-N^4-(pyridin-3-ylmethyl)cyclohexane-1,4-diamine] | +++ (+++ indicates maximal β-catenin or p53 stabilization at >2 μM) |  | 
Cn1ncc(-c2nc(NC3CCC(NCc4ccn[nH]4)CC3)ncc2Cl)c1CC1CC1 [Compound A82, (1R,4R)—N^1-((1H-pyrazol-3-yl)methyl)-N^4-(5-chloro-4-(5-(cyclopropylmethyl)-1-methyl-1H-pyrazol-4-yl)pyrimidin-2-yl)cyclohexane-1,4-diamine] | +++ (+++ indicates maximal β-catenin or p53 stabilization at >2 μM) |  | 
Cc1[nH]ncc1CN[C@H]1CC[C@H](Nc2ncc(Cl)c(-c3cnn(C)c3CC3CC3)n2)CC1 [Compound A91, (1R,4R)—N^1-(5-chloro-4-(5-(cyclopropylmethyl)-1-methyl-1H-pyrazol-4-yl)pyrimidin-2-yl)-N^4-((5-methyl-1H-pyrazol-4-yl)methyl)cyclohexane-1,4-diamine] | +++ (+++ indicates maximal β-catenin or p53 stabilization at >2 μM) |  | 
Cn1ncc(-c2nc(N[C@H]3CC[C@H](NCC(F)(F)F)CC3)ncc2Cl)c1CC1CC1 [Compound A94, (1R,4R)—N^1-(5-chloro-4-(5-(cyclopropylmethyl)-1-methyl-1H-pyrazol-4-yl)pyrimidin-2-yl)-N^4-(2,2,2-trifluoroethyl)cyclohexane-1,4-diamine] | + (+ indicates low, yet significant activation at a compound concentration of 6 μM) |  | 
Cn1ncc(-c2nc(N[C@H]3CC[C@H](N(Cc4cn[nH]c4)CC(F)(F)F)CC3)ncc2Cl)c1CC1CC1 [Compound A95, (1R,4R)—N1-((1H-pyrazol-4-yl)methyl)-N4-(5-chloro-4-(5-(cyclopropylmethyl)-1-methyl-1H-pyrazol-4-yl)pyrimidin-2-yl)-N1-(2,2,2-trifluoroethyl)cyclohexane-1,4-diamine] | +++ (+++ indicates maximal β-catenin or p53 stabilization at >2 μM) |  | 
